Structures can show the parent of a compound that is named as a salt.
Tests used:
[1] = toxicity comparison of prior art compound with the compounds of the invention; settings: prior art compound prepared and tested by applicants
Excerpt: The closest prior art compound known to applicants is 1,5-bis[N-(4-diethylamino- 1-methylbutyl)sulfamoyl]-anthraquinone. The preparation of this compound is disclosed in I. Kh. Fel'dman, Z. Ovsyanaya, and E. Kozlov, Tr. Leningr. Khim.-Farmatsevt. Inst. 1960 (11), 48-53; CA 59: 11312.

[2] = system: virus (Vaccinia IHD, Encephalomyocarditis, Influenza Ao (PR8), Influenza A/Equine (Prague), Mengo, Semliki Forest); format: in vivo, mice; settings: prior art compound prepared and tested by applicants
[3] = system: Vaccinia IHD; format: in vivo, mice; settings: Vaccinia IHD 24 ID50, subcutaneous in tail; lesion scored on 7th day; subcutaneous treatment 28, 22, 4 hrs. pre- and 2, 20, 26 hrs. post-challenge; 2 to 50 mg. per kg.
[4] = hygroscopicity; format: physicochemical; settings: dihydrochloride salt
Protocol: Following the procedure of Example 1 and using anthraquinone-2,7-disulfonylchloride, the title compound was obtained. Since the dihydrochloride was hygroscopic, it was converted to the free base by stirring it in a 10% sodium carbonate solution and recrystallized from a mixture of ether and hexane, m.p. 93°-95°.

CCN(CC)CCCC(C)NS(=O)(=O)c1cccc2c1C(=O)c1cccc(S(=O)(=O)NC(C)CCCN(CC)CC)c1C2=O (stereo not shown) [1,5-bis[N-(4-diethylamino-1-methylbutyl)sulfamoyl]-anthraquinone]
toxicity relative to the compounds of this invention [1]: very much more toxic than the compounds of this invention | activity in antiviral tests used with the compounds of this invention [2]: inactive

CCCCN(CCCC)CCCNS(=O)(=O)c1ccc2c(c1)C(=O)c1cc(S(=O)(=O)NCCCN(CCCC)CCCC)ccc1C2=O [Example 6, 2,7-Bis-[N-(3-dibutylaminopropyl)sulfamoyl]-anthraquinone]
antiviral activity: lesions of treated animals compared to controls [3]: fewer lesions

CCCCN(CCCC)CCCNS(=O)(=O)c1ccc2c(c1)C(=O)c1cc(S(=O)(=O)NCCCN(CCCC)CCCC)ccc1C2=O [Example 3 dihydrochloride]
hygroscopicity [4]: hygroscopic

— patent US3983248A (priority 1971, dated 1976)
